The results in this text go back to publication PMC7460285, “OctoPartenopin: Identification and Preliminary Characterization of a Novel Antimicrobial Peptide from the Suckers of Octopus vulgaris” (Marine Drugs, 2020).

Ends that are not written are not given here.

Assay [1] deals with mature biofilms of S. aureus, P. aeruginosa, and C. albicans. The assay can be described thus: Mature biofilm eradication assay, crystal violet. The class given is cell-based. To be noted: preformed 24 h biofilm, peptide 10 to 80 μM for 24 h, 30 °C; for Dispersion (clearance) of mature biofilm biomass: strain and concentration not stated for the values (Figure 4). Here is the method:
(§1) The microorganism’s ability to form biofilm was determined using the method previously described in our laboratory. Bacterial and fungal biofilm prevention and eradication assays were performed based on our published protocols. Synthetized peptides (P0–P4) were tested at sub-MIC concentrations ranging from 10 to 80 μM in triplicate in both assays. For the prevention of biofilm formation, diluted cultures of each strain were added to 96-well plates and incubated with peptides (at concentrations ranging from 10 to 80 μM) at 30 °C, for 24 h. For the eradication of mature biofilm, diluted cultures of C. albicans and two bacteria were added to 96-well plates and incubated at 30 °C. After 24 h, the planktonic cells and medium were aspirated from the wells and fresh medium was added to the well, followed by peptides at the same concentrations. Plates were incubated at 30 °C, for an additional 24 h. For both above mentioned assays, the planktonic cells and medium were aspirated at the end of the final incubation period, and wells were washed twice with PBS. The residual attached biofilms were fixed with 95% v/v ethanol per well and, after 20 min, plates were emptied and left to dry. Plates were stained for 15 min with 0.1% w/v crystal violet. Excess stain was then removed by rinsing the plate with PBS. The plates were allowed to dry, and the crystal violet-stained biofilm was solubilized with 200 μL of 30% v/v glacial acetic acid per well. The OD of each well was measured at 550 nm with a microplate reader. The same formula described above was used to quantify the biofilm biomass forming when the incubation was done with peptides or when remaining after incubation with peptides. The percentage of biofilm inhibition and eradication was determined by the formula: biofilm reduction % = OD control − OD sample/OD control × 100%.

Assay [2] relates to S. aureus ATCC 6538. Nature of the assay: Broth microdilution MIC determination. The class given is cell-based, Staphylococcus aureus. To be noted: 80% inhibition of growth in liquid medium (TSB), 37 °C, 18 h, mean of three replicates ± SD. Here is the method:
(§2) Microorganisms used for this study were as follows: Staphylococcus aureus ATCC 6538, Pseudomonas aeruginosa ATCC 9027, and Candida albicans ATCC 90028. Microorganisms were routinely cultured in tryptic soy broth (TSB) supplemented with 0.1% glucose, at 37 °C, for 18 h prior to experiments, and corresponding cell concentration was adjusted to 10^6 CFU mL^−1 by optical density at 600 nm. Stock cultures were maintained in trypticase soy agar (TSA) and Sabouraud dextrose agar containing glycerol at −80 °C. The minimum inhibitory concentration (MIC) determination was conducted as described in our previous papers. Briefly, microbes were inoculated in TSB and incubated at 37 °C to the exponential phase. Then, the inoculum was diluted with fresh TSB to 10^6 CFU/mL, and 50 μL microbial dilutions were mixed with serial dilutions of fractions or peptides (50 μL) in 96-well microtiter plates.
(In broth dilution the organism is exposed to a series of concentrations in liquid medium.)

The test system of assay [3] is C. albicans ATCC 90028. Nature of the assay: Broth microdilution MIC determination. The assay is classed as cell-based, Candida albicans. The settings on record: 80% inhibition of growth in liquid medium (TSB), 37 °C, 18 h, mean of three replicates ± SD. Here is the method:
as §2

Assay [4] deals with P. aeruginosa ATCC 9027. Nature of the assay: Broth microdilution MIC determination. The assay is classed as cell-based, Pseudomonas aeruginosa. To be noted: 80% inhibition of growth in liquid medium (TSB), 37 °C, 18 h, mean of three replicates ± SD. Here is the method: as §2
The subject of assay [5] is S. aureus ATCC 6538. The assay can be described thus: Agar diffusion assay (inhibition zone diameter). The settings on record: 5 μg ampicillin, 5 μg gentamicin, 37 °C, 24 h. Details: key: R: Resistant; I: Intermediate; S: Sensitive. The assay is classed as cell-based, Staphylococcus aureus. Here is the method: (§3) Microorganisms used for this study were as follows: Staphylococcus aureus ATCC 6538, Pseudomonas aeruginosa ATCC 9027, and Candida albicans ATCC 90028. Microorganisms were routinely cultured in tryptic soy broth (TSB) supplemented with 0.1% glucose, at 37 °C, for 18 h prior to experiments, and corresponding cell concentration was adjusted to 10^6 CFU mL^−1 by optical density at 600 nm. Stock cultures were maintained in trypticase soy agar (TSA) and Sabouraud dextrose agar containing glycerol at −80 °C.
(§4) For antimicrobial testing, the agar disc diffusion method was used and the antimicrobial susceptibility was detected by analyzing the inhibition zones, measured and compared according to the standards set by the CLSI [106], which classify the strains as sensitive (S), intermediate (I), or resistant (R). All tests were performed in duplicate, and the antimicrobial activity was expressed as the mean of inhibition diameters (mm, ±standard deviation, SD) produced by the extracts.
(§5) Microorganisms were cultivated overnight and a suspension containing 10^6 CFU mL^−1 was spread on plates containing TSA or Sabouraud agar. Holes of approximately 5 × 3 mm were made in the agar and were filled with 30 μL of the extract stock solution (1 mg/mL). After incubation at 37 °C for 24 h, inhibition zones were measured in millimeters and compared to the controls. […]
On the technique in general: Agar diffusion results depend on both activity and mobility in agar.

The subject of assay [6] is P. aeruginosa ATCC 9027. The assay can be described thus: Agar diffusion assay (inhibition zone diameter). The assay is classed as cell-based, Pseudomonas aeruginosa. Details: key: R: Resistant; I: Intermediate; S: Sensitive. The settings on record: 5 μg ampicillin, 5 μg gentamicin, 37 °C, 24 h. The procedure: as §3, §4, §5
The subject of assay [7] is C. albicans ATCC 90028. Nature of the assay: Agar diffusion assay (inhibition zone diameter). The class given is cell-based, Candida albicans. More on the design: key: R: Resistant; I: Intermediate; S: Sensitive. To be noted: 1 μg amphotericin B, 37 °C, 24 h. The procedure: as §3, §4, §5
The subject of assay [8] is C. albicans biofilm. The assay is classed as cell-based, Candida albicans. To be noted: 24 h. Here is the method:
as §1, with “For both above mentioned assays, the planktonic cells and medium were aspirated at the end of the final incubation period, and wells were washed twice with PBS. The residual attached biofilms were fixed with 95% v/v ethanol per well and, after 20 min, plates were emptied and left to dry. Plates were stained for 15 min with 0.1% w/v crystal violet. Excess stain was then removed by rinsing the plate with PBS. The plates were allowed to dry, and the crystal violet-stained biofilm was solubilized with 200 μL of 30% v/v glacial acetic acid per well.” left out

In the case of QAGTNK-NH2 [P1], the “Antibiofilm (eradication) activity, in words” value in assay [1] is “weakest antibiofilm activity”. Further, the MIC80 synthetized peptides in assay [2] came out at 150 ± 3 µM; in assay [3], 200 ± 5 µM; in assay [4], 100 ± 5 µM.
With `CNC(C)C1CCC(N)C(OC2C(N)CC(N)C(OC3OCC(C)(O)C(NC)C3O)C2O)O1` (stereo not shown) [G, Gentamicin], the “Susceptibility class to positive control (CLSI interpretative chart)” value (from here on “Susceptibility class to positive control”) in assay [5] and in assay [6] was “S” each time.
On to EGQGVISLQAGTNK-NH2 [P3], for which the “Dispersion (clearance) of mature biofilm biomass” value (“Dispersion (clearance)” for short) in assay [1] is roughly 80%. The MIC80 synthetized peptides in assay [2] was found to be 80 ± 1 µM; in assay [3], 100 ± 4 µM; in assay [4], 50 ± 3 µM.
Regarding `C[C@@H]1[C@H](O)[C@@H](C)/C=C/C=C/C=C/C=C/C=C/C=C/C=C/[C@H](O[C@@H]2O[C@H](C)[C@@H](O)[C@H](N)[C@@H]2O)C[C@@H]2O[C@](O)(C[C@@H](O)C[C@@H](O)[C@H](O)CC[C@@H](O)C[C@@H](O)CC(=O)O[C@H]1C)C[C@H](O)[C@H]2C(=O)O` [AMPH-B, amphotericin B], in assay [7], the “Susceptibility class to positive control” value was “S”.
Consider `CC1(C)S[C@@H]2[C@H](NC(=O)[C@H](N)c3ccccc3)C(=O)N2[C@H]1C(=O)O` [AMP, Ampicillin], for which the “Susceptibility class to positive control” value was “S” in assay [5] and “R” in assay [6].
Consider “GEGIIGLQAGTNKFASQIGMKIGAVRHIADIR-NH2 [P4]”, for which the MIC80 synthetized peptides is reported as 80 ± 5 µM in assay [2], 180 ± 5 µM in assay [3] and 50 ± 2 µM in assay [4].
Regarding AGTNK-NH2 [P0], the “Dispersion (clearance)” value in assay [1] is given as “about 70%”. The MIC80 synthetized peptides in assay [2] came to 150 ± 2 µM; in assay [3], 200 ± 3 µM; in assay [4] it was 200 ± 3 µM.
Regarding QAGSNKGASQKGMS-NH2 [P2], the “Inhibition rate of biofilm formation” value in assay [8] is “about 40%”. Further, in assay [1], the “Dispersion (clearance)” value is roughly 90%. The MIC80 synthetized peptides came to 50 ± 5 µM in assay [2], 100 ± 3 µM in assay [3] and 50 ± 2 µM in assay [4].
